Measured values taken from patent US8344100B2, “Poly-epitope peptide derived from thymidylate synthase having immunological and anti-tumour activity” (Universitá degli Studi di Siena, priority 2005, dated 2013).
Values belong to the molecule of their own block, whether it stands above or below them. Where a SMILES comes first, the peptide text is derived from it.

Key:
[1] = test system: EL-4/HHD autologous leukemic cells; assay: Tumour growth in HHD mice inoculated with EL-4/HHD cells; type: in vivo, transgenic (HHD) mice; settings: with weekly intraperitoneal 5-FU
Procedure: The results are given as the mean value ±SD of the maximum diameter.
In this study, six groups of five mice received different immunological treatments with or without chemotherapeutic treatment with 5-FU. The mice in groups A and B were administered a control peptide derived from the mumps virus (100 μg per mouse); the mice in groups C and D were administered a cocktail of the TS-1, TS-2 and TS-3 peptides (100 μg per mouse); and the mice in groups E and F were administered the TS/PP peptide (100 μg per mouse).
The mice received the first peptide administration subcutaneously at time 0, with recalls in the third and sixth week. Two weeks after the last administration, all animals were subcutaneously inoculated with 2×10^6 EL-4/HHD cells.
In order to evaluate the possible interaction between TS and the 5-FU treatment for vaccination purposes, seven days after the tumour cells inoculation, the mice in groups B, D and F underwent a chemotherapeutic treatment based on weekly intraperitoneal administration of 5-FU ([…]).

[2] = test system: breast and colon carcinoma tumour cells; assay: Viability of target cells exposed to 5-FU (hemocytometric count); type: cell-based, human; settings: sub-lethal doses for 48 hours
Excerpt: The viability of the target cells exposed to 5-FU was examined by means of a hemocytometric count after staining and was never less than 90%, thus excluding the possibility that the immunosensitisation was due to the large number of dead or already degenerating cells in the cytotoxicity assay.

[3] = test system: murine TS in EL-4/HHD cells; assay: Cytofluorimetric test of TS expression in EL-4/HHD cells; type: cell-based, mouse; settings: sub-lethal dose, constitutive expression 35%
[4] = test system: MDA-MB-231, HT-29 and SW-1463 target cells; assay: Cytofluorimetric and immunoblotting analyses of target cells treated with 5-FU; type: cell-based, human; settings: data not shown
[5] = test system: HT-29 cells transfected with the HLA-A(*)02.01 gene; assay: 51Cr release cytotoxicity test of CTL lines against colon carcinoma cells HT-29; type: cell-based; settings: HT-29 pretreated with 5-FU
Procedure: (§1) The lymphocyte lines generated in vitro using TS/PP were capable of destroying the target cells derived from colon carcinoma (the HT-29 and SW-1463 cell lines).
HLA-A (*)02.01 expression was induced by gene transfection on the membrane of HT29 target cells before every experiment. Specific lysis was calculated as follows: […]

SW-1463 cells = assay: 51Cr release cytotoxicity test of CTL lines against colon carcinoma cells SW-1463; type: cell-based; settings: SW-1463 pretreated with 5-FU
Excerpt: as §1

[6] = Anatomo-pathological study of organs (autoimmunity, toxicity); type: in vivo, transgenic (HHD) mice; settings: lung, liver, spleen, kidney, brain, skin and mucosa
MDA-MB-231 cells = settings: MDA-MB-231 pretreated with 5-FU
Procedure: Cytotoxic assays. The release of radioactive chrome (^51Cr) was assayed as described in previous studies [18].
Spontaneous release was determined in the plates to which 100 μl of medium was added without effector cells. The total radioactivity released was determined after treating the target with Triton x-100. HLA was blocked by using an anti-HLA-A2 antibody (A2.69, One Lambda, Inc., Chanoga Park, Calif., USA) or the anti-class I (pan A,B,C)-HLA antibody W6.32, which were incubated with the target cells for one hour before the cytotoxicity assay. The negative control was the UPC-10 monoclonal antibody.
The cytotoxicity tests carried out using the technique of ^51Cr release were performed using target cells coming from cell lines derived from breast carcinoma (MDA-MB-231) and colon carcinoma (HT-29 and SW-1463), before and after treatment with sub-lethal doses of 5-FU.

[7] = target: T1, HLA-A(*)02.01 molecule on cells (human); assay: T2 test (flow cytometry of HLA expression on T2 cells after exposure to the peptide)
T1 construct: whole, on cells; Class I MHC molecule on cells; also called HLA-A2; HLA-A2.1

[8] = target: T1, HLA-A(*)02.01 molecule on cells; assay: T2 test (flow cytometry, HLA-A*02:01 on T2 cells)

Molecule: O=c1[nH]cc(F)c(=O)[nH]1 [5-FU, 5-fluorouracil]
Neoplastic growth [1]: did not change neoplastic growth in any way | Viability of the target cells [2]: ≥ 90% | Expression of murine TS [3]: 55-70% | TS expression ([4]; MDA-MB-231, HT-29, SW-1463): significant increase | Class I HLA expression [4]: did not induce any change

Molecule: CC[C@H](C)[C@H](NC(=O)[C@H](CCSC)NC(=O)[C@@H](N)Cc1ccc(O)cc1)C(=O)N[C@@H](C)C(=O)N[C@@H](Cc1c[nH]cn1)C(=O)N[C@H](C(=O)N[C@H](C(=O)NCC(=O)N[C@@H](CC(C)C)C(=O)N[C@@H](Cc1ccccc1)C(=O)N[C@@H](CC(C)C)C(=O)N[C@@H](CC(=O)O)C(=O)N[C@@H](CO)C(=O)N[C@@H](CC(C)C)C(=O)NCC(=O)N[C@@H](Cc1ccccc1)C(=O)N[C@@H](CO)C(=O)N[C@H](C(=O)N[C@H](C(=O)N[C@@H](CC(C)C)C(=O)NCC(=O)N[C@@H](CC(=O)O)C(=O)N[C@@H](C)C(=O)N[C@@H](Cc1c[nH]cn1)C(=O)N[C@H](C(=O)N[C@@H](Cc1ccc(O)cc1)C(=O)N[C@@H](CC(C)C)C(=O)O)[C@@H](C)CC)[C@@H](C)O)[C@@H](C)O)[C@@H](C)O)[C@@H](C)CC [TS/PP] (H-YMIAHITGLFLDSLGFSTTLGDAHIYL-OH; N-terminus and C-terminus assumed)
Lysis after target cell pre-treatment with sub-lethal 5-FU doses [5]: significantly increased | Lysis after target cell pre-treatment with sub-lethal 5-FU doses (SW-1463 cells): significantly increased | Degeneration, autoimmunity or toxicity [6]: do not indicate any autoimmunity or toxicity phenomena | Lytic activity after target cell pre-treatment with sub-lethal 5-FU doses (MDA-MB-231 cells): significantly increased

binding result [7]: no binding
B1: TS/PP poly-epitope peptide (YMIAHITGLFLDSLGFSTTLGDAHIYL) (peptide)
peptide: YMIAHITGLFLDSLGFSTTLGDAHIYL
notes: also called 28-amer peptide

binding result [8]: binds
B2: TS-1 peptide (TLGDAHIYL) (peptide)
peptide: TLGDAHIYL
notes: Synthetic 9-mer

binding result [8]: binds
B3: TS-3 peptide (FLDSLGFST) (peptide)
peptide: FLDSLGFST
notes: Synthetic 9-mer

binding result [8]: binds
B4: TS-2 peptide (YMIAHITGL) (peptide)
peptide: YMIAHITGL
notes: Synthetic 9-mer
